Measurements as given in patent US7615651B2, “Diaryl, dipyridinyl and aryl-pyridinyl derivatives and uses thereof” (Pfizer Inc., priority 2006, dated 2009).
Where a name gives a salt, the structure may show the parent alone. Read-outs that look alike come from different tables or passages of the source.

Key:
[1] = molecular target: T1, opioid receptor delta (Homo sapiens, UniProt P41143); assay: GTPγ[35S] binding assay, antagonism of BW-373U86; type: biochemical
T1 construct: expressed in transfected cells
Experimental: (§1) Membranes were prepared from cells as described (Bass et al, 1996). GTPγ[5S] binding assays were performed in a 96 well FlashPlate™ format in duplicate using […] GTPγ[^35S] and 5 μg membrane per well in assay buffer composed of 50 mM Tris HCl, pH 7.4, 5 mM MgCl2, 1 mM EDTA, 100 mM NaCl, 30 μM GDP, 0.1% bovine serum albumin and the following protease inhibitors: 100 μg/ml bacitracin, 100 μg/ml benzamidine, 5 μg/ml aprotinin, 5 μg/ml leupeptin. The assay mix was then incubated at 30° C. with increasing concentrations of antagonist (10^−10 M to 10^−5 M) for 10 minutes and challenged with the agonists BW-373U86 (1 nM), dynorphin-A (10 nM), […] (1 μM) for opioid receptors delta, kappa, and mu, respectively. The assays were performed at 30° C. for one hour. The FlashPlates were then centrifuged at 2000×g for 10 minutes. Stimulation of GTPγ[^35S] binding was then quantified using a Wallac Microbeta and Ki calculations were done using Prism™ by Graphpad.

[2] = Spontaneous food intake model; type: in vivo, Sprague-Dawley rats; conditions: rats dosed before onset of dark cycle, compared with vehicle
Experimental: Male Sprague-Dawley rats may be obtained from Charles River Laboratories, Inc. (Wilmington, Mass.). The rats were individually housed and fed powdered chow. They were maintained on a 12 hour light/dark cycle and received food and water ad libitum. The animals were acclimated to the vivarium for a period of one week before testing is conducted. Rats were transferred to individual test cages 30 hours before the study. The rats were administered test compound or vehicle alone (no compound) 15-30 minutes prior to the onset of the dark cycle. The test compounds were dosed at ranges between 0.1 and 100 mg/kg depending upon the compound. The standard vehicle was 0.5% (w/v) methylcellulose or 30% β-cyclodextrin in water and the standard route of administration was oral. However, different vehicles and routes of administration are used to accommodate various compounds when required. Food intake was monitored using an automated Columbus Instruments system (Columbus, Ohio). Individual rat food intake was recorded continuously at 10-minute intervals, starting at the time of dosing, for a period of at least 12 hours. Compound efficacy was determined by comparing the food intake pattern of compound-treated rats to vehicle.

[3] = molecular target: T2, opioid receptor mu (Homo sapiens, UniProt P35372); assay: GTPγ[35S] binding assay, antagonism of endorphin; type: biochemical
T2 construct: expressed in transfected cells
Experimental: as §1

[4] = molecular target: T3, opioid receptor kappa (Homo sapiens, UniProt P41145); assay: GTPγ[35S] binding assay, antagonism of dynorphin-A; type: biochemical
T3 construct: expressed in transfected cells
Experimental: as §1

[5] = average Ki, antagonism of BW-373U86 (1 nM) stimulated GTPγ[35S] binding, delta opioid receptor membranes, read-out: Delta functional (GTPγ[35S] binding Ki)
[6] = average Ki, antagonism of endorphin (1 μM) stimulated GTPγ[35S] binding, mu opioid receptor membranes, read-out: Mu functional (GTPγ[35S] binding Ki)
[7] = average Ki, antagonism of dynorphin-A (10 nM) stimulated GTPγ[35S] binding, kappa opioid receptor membranes, read-out: Kappa functional (GTPγ[35S] binding Ki)
[8] = average Ki, antagonism of BW-373U86 (1 nM) at delta opioid receptor membranes, read-out: Delta functional Ki (GTPγ[35S] binding)
[9] = average Ki, antagonism of endorphin (1 μM) at mu opioid receptor membranes, read-out: Mu functional Ki (GTPγ[35S] binding)
[10] = average Ki, antagonism of dynorphin-A (10 nM) at kappa opioid receptor membranes, read-out: Kappa functional Ki (GTPγ[35S] binding)
[11] = read-out: Delta functional Ki (GTPγ[35S] binding)
[12] = read-out: Mu functional Ki (GTPγ[35S] binding)
[13] = read-out: Kappa functional Ki (GTPγ[35S] binding)
[14] = average Ki, antagonism of BW-373U86 (1 nM) at delta opioid receptor, read-out: Delta functional Ki (GTPγ[35S] binding)
[15] = average Ki, antagonism of endorphin (1 μM) at mu opioid receptor, read-out: Mu functional Ki (GTPγ[35S] binding)
[16] = average Ki, antagonism of dynorphin-A (10 nM) at kappa opioid receptor, read-out: Kappa functional Ki (GTPγ[35S] binding)

T3 sequence (P41145 whole entry): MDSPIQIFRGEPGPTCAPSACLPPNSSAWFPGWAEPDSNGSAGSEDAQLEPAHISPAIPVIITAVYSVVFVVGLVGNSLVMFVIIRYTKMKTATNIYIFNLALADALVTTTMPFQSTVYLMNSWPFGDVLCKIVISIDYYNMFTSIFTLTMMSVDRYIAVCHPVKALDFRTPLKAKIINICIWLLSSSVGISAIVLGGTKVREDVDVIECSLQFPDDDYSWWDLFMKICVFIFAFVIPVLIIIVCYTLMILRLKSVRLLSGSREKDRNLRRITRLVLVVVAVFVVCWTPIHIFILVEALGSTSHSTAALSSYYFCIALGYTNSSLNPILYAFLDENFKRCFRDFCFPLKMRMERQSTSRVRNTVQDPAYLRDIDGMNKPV
T1 sequence (P41143 whole entry): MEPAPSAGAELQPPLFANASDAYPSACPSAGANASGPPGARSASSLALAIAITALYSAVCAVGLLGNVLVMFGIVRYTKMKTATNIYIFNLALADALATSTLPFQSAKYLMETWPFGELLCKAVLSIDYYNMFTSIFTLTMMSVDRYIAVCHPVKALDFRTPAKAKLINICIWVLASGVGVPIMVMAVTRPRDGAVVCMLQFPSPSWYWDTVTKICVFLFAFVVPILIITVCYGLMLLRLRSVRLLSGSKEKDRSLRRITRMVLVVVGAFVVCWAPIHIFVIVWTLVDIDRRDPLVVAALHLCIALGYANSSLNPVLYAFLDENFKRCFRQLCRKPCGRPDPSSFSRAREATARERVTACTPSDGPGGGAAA
T2 sequence (P35372 whole entry): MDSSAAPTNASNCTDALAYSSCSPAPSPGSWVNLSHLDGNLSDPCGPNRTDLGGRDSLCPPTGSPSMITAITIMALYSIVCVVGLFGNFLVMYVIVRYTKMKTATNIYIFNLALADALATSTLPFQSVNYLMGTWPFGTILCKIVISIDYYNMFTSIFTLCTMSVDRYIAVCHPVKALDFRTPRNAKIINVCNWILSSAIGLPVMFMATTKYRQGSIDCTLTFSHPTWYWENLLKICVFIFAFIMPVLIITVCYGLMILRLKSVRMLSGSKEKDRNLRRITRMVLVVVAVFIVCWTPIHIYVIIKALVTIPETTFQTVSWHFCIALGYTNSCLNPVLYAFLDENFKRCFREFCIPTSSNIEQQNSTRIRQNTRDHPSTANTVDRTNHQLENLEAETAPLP

Row | Ki [1, 11] [nM] | Ki [3, 12] [nM] | Ki [4, 13] [nM] | Structure (SMILES) | also measured
1 | – | – | – | CC(C)CCNCc1ccc(-c2cc(C(N)=O)ccc2F)c(F)c1.Cl [1A-07] | Ki [1, 5]: 9.49 nM; food intake [2]: significant reduction in food intake; Ki [3, 6]: 14.5 nM; Ki [4, 7]: 14.3 nM
2 | – | – | – | Cc1cc(C(N)=O)ccc1-c1ccc(CNCCC(C)C)cc1F.Cl [1B-03] | Ki [1, 5]: 5.09 nM; food intake [2]: significant reduction in food intake; Ki [3, 6]: 8.96 nM; Ki [4, 7]: 3.32 nM
3 | – | – | – | Cc1cc(C(N)=O)ccc1-c1ccc(CNC2Cc3ccccc3C2)cc1.Cl [4B-04] | Ki [1, 5]: 0.185 nM; food intake [2]: significant reduction in food intake; Ki [3, 6]: 0.0925 nM; Ki [4, 7]: 0.406 nM
4 | – | – | – | Cc1cc(C(N)=O)ccc1-c1ccc(CNCCCc2ccccc2)cc1.Cl [4B-08] | Ki [1, 5]: 0.838 nM; food intake [2]: significant reduction in food intake; Ki [3, 6]: 2.84 nM; Ki [4, 7]: 2.19 nM
5 | – | – | – | Cc1cc(C(N)=O)ccc1-c1cc(F)c(CNC2Cc3ccccc3C2)cc1F [4B-75] | Ki [1, 8]: 0.309 nM; Ki [3, 9]: 0.069 nM; Ki [4, 10]: 1.27 nM
6 | 0.501 | 1.02 | 8.11 | CCc1cc(C(N)=O)ccc1-c1c(C)cc(CNCCC2CCOCC2)cc1C [4B-76] | –
7 | 0.271 | 0.114 | 0.949 | CCc1cc(C(N)=O)ccc1-c1ccc(CNC2Cc3ccccc3C2)cc1C [4B-77] | –
8 | 18.8 | 35.1 | 8.48 | NC(=O)c1ccc(-c2ccc(CNC[C@H]3CCCO3)cc2Cl)c(Cl)c1 [4B-78] | –
9 | – | – | – | CC1(C)OCC(CNCc2ccc(-c3ccc(C(N)=O)cc3Cl)c(Cl)c2)O1 (stereo not shown) [4B-79] | Ki [1, 8]: 1.42 nM; Ki [3, 9]: 228 nM; Ki [4, 10]: 128 nM
10 | 11.8 | 13.7 | 9.5 | CC(C)CCNCc1cc(F)c(-c2ccc(C(N)=O)cc2Cl)cc1F [4B-80] | –
11 | 15.2 | 13.4 | 16.8 | CCc1cc(C(N)=O)ccc1-c1cc(F)c(CNCCC(C)C)c(F)c1 [4B-81] | –
12 | 0.15 | 0.0287 | 1.77 | Cc1cc(CNC2Cc3ccccc3C2)cc(Cl)c1-c1ccc(C(N)=O)cc1Cl [4B-82] | –
13 | 1.66 | 0.429 | 3.71 | Cc1cc(C(N)=O)ccc1-c1c(C)cc(CNCCC(C)C)cc1Cl [4B-83] | –
14 | 0.0778 | 0.0145 | 0.593 | Cc1cc(C(N)=O)ccc1-c1c(C)cc(CNC2Cc3ccccc3C2)cc1Cl [4B-84] | –
15 | 0.588 | 2.48 | 5.48 | Cc1cc(C(N)=O)ccc1-c1ccc(CNCCC(C)C)c(OCc2ccccc2)c1 [4B-85] | –
16 | 0.0438 | 0.0895 | 1.74 | Cc1cc(C(N)=O)ccc1-c1ccc(CNC2Cc3ccccc3C2)c(OCc2ccccc2)c1 [4B-86] | –
17 | 0.591 | 0.134 | 0.78 | Cc1cc(C(N)=O)ccc1-c1ccc(CNC2Cc3ccccc3C2)c(O)c1 [4B-88] | –
18 | 0.0895 | 0.0272 | 0.366 | COc1cc(-c2ccc(C(N)=O)cc2C)ccc1CNC1Cc2ccccc2C1 [4B-89] | –
19 | 1.66 | 1.17 | 1.66 | Cc1cc(-c2ccc(C(N)=O)cc2C)ccc1CNCCC(C)C [4B-90] | –
20 | – | – | – | Cc1cc(C(N)=O)ccc1-c1c(C)cc(CNCC2CCCO2)cc1Cl (stereo not shown) [4B-91] | Ki [1, 8]: 24.5 nM; Ki [3, 9]: 2.22 nM; Ki [4, 10]: 9.01 nM
21 | – | – | – | CC(C)CCNCc1ccc(-c2ncc(C(N)=O)cc2Cl)cc1 [4C-01] | Ki [1, 8]: 33.8 nM; Ki [3, 9]: 28 nM; Ki [4, 10]: 15.6 nM
22 | 1.95 | 0.489 | 1.95 | NC(=O)c1cnc(-c2ccc(CNC3Cc4ccccc4C3)cc2)c(Cl)c1 [4C-02] | –
23 | 0.822 | 0.201 | 0.982 | Cc1cc(C(N)=O)cnc1-c1ccc(CNC2Cc3ccccc3C2)cc1 [4C-03] | –

Row | Ki [1, 11] [nM] | Ki [3, 12] [nM] | Ki [4, 13] [nM] | Structure (SMILES) | also measured
24 | – | – | – | Cc1cc(C(N)=O)cnc1-c1ccc(CNCCC(C)C)cc1 [4C-04] | Ki [1, 8]: 21.9 nM; Ki [3, 9]: 10.5 nM; Ki [4, 10]: 7.23 nM
25 | – | – | – | CCOCCNCc1ccc(-c2cccc(C(N)=O)c2)c(Cl)c1 [6A-01] | Ki [1, 8]: 25.5 nM; Ki [3, 9]: 12.8 nM; Ki [4, 10]: 41.6 nM
26 | 23.5 | 12.4 | 473 | NC(=O)c1cccc(-c2ccc(CNCCc3cscn3)cc2Cl)c1 [6A-02] | –
27 | 35.9 | 2.94 | 9.35 | NC(=O)c1cccc(-c2ccc(CN[C@H]3c4ccccc4C[C@H]3O)cc2Cl)c1 [6A-03] | –
28 | – | – | – | Cn1c(=O)n(C)c2cc(CNCc3ccc(-c4cccc(C(N)=O)c4)c(Cl)c3)ccc21 [6A-04] | Ki [1, 8]: 32.3 nM; Ki [3, 9]: 15 nM; Ki [4, 10]: 805 nM
29 | 17.6 | 5.25 | 27.2 | Cc1cc(C)n(CC(C)NCc2ccc(-c3cccc(C(N)=O)c3)c(Cl)c2)n1 (stereo not shown) [6A-05] | –
30 | – | – | – | COCCNCc1ccc(-c2cccc(C(N)=O)c2)c(Cl)c1 [6A-07] | Ki [1, 8]: 0.0652 nM; Ki [3, 9]: 78.4 nM; Ki [4, 10]: 58.1 nM
31 | 4.92 | 8.62 | 32.1 | Cc1ncsc1CCNCc1ccc(-c2cccc(C(N)=O)c2)c(Cl)c1 [6A-08] | –
32 | 26.1 | 8.31 | 8.43 | CC(C)CCNCc1ccc(-c2cccc(-c3ncn[nH]3)c2)cc1 [7A-01] | –
33 | – | – | – | CC(C)CCNCc1ccc(-c2cc(-c3ncn[nH]3)ccc2F)cc1 [7A-02] | Ki [1, 8]: 5.26 nM; Ki [3, 9]: 1.59 nM; Ki [4, 10]: 1.77 nM
34 | 12.5 | 4.07 | 2.71 | CC(C)CCNCc1ccc(-c2cc(-c3ncn[nH]3)ccc2F)c(F)c1 [7A-03] | –
35 | 311 | 10.3 | 35 | CC(C)CCNCc1ccc(-c2ccc(-c3ncn[nH]3)cc2)cc1 [7B-01] | –
36 | 3.71 | 0.72 | 4.4 | Cc1cc(CNCCC(C)C)ccc1-c1ccc(-c2ncn[nH]2)cc1 [7B-02] | –
37 | 28.2 | 1.7 | 9.25 | Cc1cc(-c2ncn[nH]2)ccc1-c1ccc(CNCCC(C)C)cc1F [7B-03] | –
38 | 8.08 | 2.53 | 13.6 | CC(C)CCNCc1ccc(-c2ccc(-c3ncn[nH]3)cc2)c(F)c1 [7B-04] | –
39 | 29.7 | 14.2 | 47.4 | CC(C)CCNCc1ccc(-c2ccc(-c3ncn[nH]3)cc2C(F)(F)F)cc1 [7B-05] | –
40 | – | – | – | Cc1cc(CNCCC(C)C)ccc1-c1cccc(NS(C)(=O)=O)c1 [8A-02] | Ki [1, 14]: 10.4 nM; Ki [3, 15]: 1.15 nM; Ki [4, 16]: 15.3 nM
41 | – | – | – | CC(C)CCNCc1ccc(-c2cccc(NS(C)(=O)=O)c2)c(C#N)c1 [8A-03] | Ki [1, 14]: 18.4 nM; Ki [3, 15]: 1.16 nM; Ki [4, 16]: 13.7 nM
42 | 39.8 | 9.29 | 582 | CS(=O)(=O)Nc1ccc(-c2ccc(CNC3Cc4ccccc4C3)c(F)c2)cc1 [8B-02] | –
43 | – | – | – | Cc1cc(C(N)=O)ccc1-c1ccc(CNCCC(C)C)cc1 [E4-02, (4′-carbamoyl-2′-methyl-biphenyl-4-ylmethyl)-(3-methyl-butyl)-ammonium chloride] | Ki ([1]; read-out: Delta functional (GTPγ[35S] binding Ki)): 7.91 nM; Ki ([3]; read-out: Mu functional (GTPγ[35S] binding Ki)): 6.2 nM; Ki ([4]; read-out: Kappa functional (GTPγ[35S] binding Ki)): 2.16 nM
44 | 11 | 3.9 | 13 | Cc1cc(-c2nnc[nH]2)ccc1-c1ccc(C[NH2+]CCC(C)C)cc1 [E7-01, [2′-methyl-4′-(4H-[1,2,4]-triazol-3-yl)-biphenyl-4-ylmethyl]-(3-methyl-butyl)-amine hydrochloride] | –
45 | 32.6 | 42.1 | 281 | Cc1cc(CNCCC(C)C)ccc1-c1ccc(NS(C)(=O)=O)cc1 [E8-01, (4′-Methenesulfonylamino-2-methyl-biphenyl-4-ylmethyl)-(3-methyl-butyl)-ammonium chloride] | –
